The METLIN SMRT retention time set (Domingo-Almenara et al. 2019)

Assay: gradient 5% acetonitrile 3 min, to 50% in 2 min, to 85% in 15 min, held 3 min, 100 µL/min
Conditions: column: Zorbax Extend-C18 2.1 x 50 mm; eluents: water / acetonitrile, 0.1% formic acid
In short: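 Pure standards were analyzed in mixtures of ~100 molecules using HPLC coupled to a quadrupole time-of-flight mass spectrometer, in both positive and negative ionization mode. Separation used a Zorbax Extend-C18 column (2.1 × 50 mm, 1.8 μm) at 100 μL/min, with water and acetonitrile each containing 0.1% formic acid. Dead and dwell volumes were 40 μL and 900 μL, and data were collected over 3 months. Retention time was read from computationally picked adduct peaks, each inspected manually.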

SMILES | RP-LC retention time [s]
CCc1nc2cc(N3CCC(C(=O)NCCN4CCCCCC4)CC3)cnc2nc1CC | 613
COC(=O)c1cc2n(n1)CC(C)(C(=O)NC1CCCCC1)N(c1ccccc1F)C2=O (centres undefined) | 853
CCCN(CCC)C(=O)Cn1c(C2CCCN2C(=O)CC)nc2ccccc21 (centres undefined) | 660
CCOC(=O)C(NC(C)=O)(C(=O)OCC)C(C)c1c[nH]c2ccccc12 (centres undefined) | 847
O=C(CSc1nnc(-c2ccccc2F)o1)N1CCCc2ccccc21 | 872
COc1ccc(C(=O)O)nc1C | 552
COc1ccc(S(=O)(=O)N2CCC(c3noc(-c4cnccn4)n3)C2)cc1 (centres undefined) | 784
O=C(Cc1ccc(NC(=O)C2CCCC2)cc1)NCC(F)(F)F | 727
CC(=O)Nc1ccc(SCCCC(=O)Nc2ncc([N+](=O)[O-])s2)nn1 | 670
COc1cc(=O)n2c(c1C(=O)NC1CCCCCC1)CCCC2 | 694
O=C(CN1CCCCC1c1nc(-c2cccc(F)c2)no1)NCc1cccs1 (centres undefined) | 1060
CCn1cc(C(=O)Nc2ccc(Cl)cc2)c(S(=O)(=O)N2CCSCC2)n1 | 892
O=C(NC1CCCCCC1)C1CCCN(c2ncnc3c2oc2ccccc23)C1 (centres undefined) | 815
Cc1oc2ncnc(N3CCCC(C(=O)N4CCN(C5CCCCC5)CC4)C3)c2c1C (centres undefined) | 1230
CC(=O)N1CCc2cc(N3CC(C(=O)N4CCN(C5CCCCC5)CC4)CC3=O)ccc21 (centres undefined) | 578
CCc1nc2ccccc2c(=O)n1Cc1noc(-c2ccc3c(c2)OCO3)n1 | 964
CC(C)n1c(=O)sc2cc(S(=O)(=O)N3CCC(C(=O)NCC4CCCO4)CC3)ccc21 (centres undefined) | 762
CCn1cc(CC(=O)N2CCC(N3CCCCC3)CC2)c2cccnc21 | 553
Cc1ccn(-c2ccc(N3CCN(C(=O)c4c(F)cccc4Cl)CC3)nn2)n1 | 752
CCCn1cc(C(=O)NCCOC)c(S(=O)(=O)N2CCN(c3ccccc3OCC)CC2)n1 | 959
O=C(NCCc1csc(C2CCCN(C(=O)C3(c4ccccc4)CC3)C2)n1)C1CC1 (centres undefined) | 762

SMILES | RP-LC retention time [s]
O=C(Nc1ccc(N2CCOCC2)cc1)c1cn2c(n1)COCC2 | 600
COC(=O)c1[nH]c(C)c(C(=O)C(C)N(CC(C)C)C(=O)c2ccccc2Cl)c1C (centres undefined) | 932
O=C1NCCN2CC3(CCN(S(=O)(=O)Cc4ccccc4)CC3)CC12 (centres undefined) | 594
CCNC(=O)C1CCCN(c2nc3ncn(CC(=O)Nc4ccc5c(c4)OCO5)c(=O)c3s2)C1 (centres undefined) | 649
O=C(Nc1ccc2c(c1)OCCO2)c1cc2c(s1)CN(C1CCCC1)C2 | 621
COCC1CN(S(=O)(=O)Cc2ccc(C)c(C)c2)CC12CCNCC2 (centres undefined) | 654
O=C(CCCN1CCN(Cc2ccc(F)cc2)C(=O)C1=O)NCCc1ccc(Cl)cc1 | 733
O=C(NCc1cscn1)C1CCN(S(=O)(=O)c2cccs2)CC1 | 652
CCS(=O)(=O)N1CCC(C(=O)NCCc2csc(-c3cccs3)n2)CC1 | 738
O=C(NC1CCCCCC1)C1CCN(c2cn[nH]c(=O)c2)C1 (centres undefined) | 652
CCN(CC)CCOCCOC(=O)C1(c2ccccc2)CCCC1 | 810
Cc1ccc(NS(=O)(=O)c2cc(-c3cc(C(F)(F)F)on3)cs2)c(Br)c1 | 1160
O=C(Nc1ccc(F)c(Cl)c1)C1CCc2sc(C(=O)N3CCOCC3)cc2C1 (centres undefined) | 807
O=C(NC1CCN(c2cc(-c3cccs3)[nH]n2)C1)c1cccc(OC(F)(F)F)c1 (centres undefined) | 828
Cc1c(S(=O)(=O)NCc2cccs2)c(C)n(C)c1-c1nnc(C2CCC2)o1 | 893
CNC(=O)N1CCCC(c2nc(C(C)C)no2)CCNC(=O)CC1 (centres undefined) | 606
COc1ccccc1NC(=O)C1CCN(S(=O)(=O)c2cc(-c3noc(C4CC4)n3)cs2)CC1 | 1020
CCOc1cc(=O)n2c(c1C(=O)N1CCN(C3CCCCC3)CC1)CCCCC2 | 590
O=C(CN1CCN(Cc2ccc(F)cc2)C1=O)NC1CC1 | 649
CC1CCN(C(=O)c2ccc(CN3CCN(Cc4ccc(F)cc4)C(=O)C3=O)cc2)CC1 | 783

The remaining lines, values ahead:

RP-LC retention time [s] | SMILES
754 | CCNC(=O)Nc1ccc2c(c1)CN(S(=O)(=O)Cc1ccccc1)CCO2
788 | CCn1nccc1C(=O)NC1CCN(C2=NS(=O)(=O)C(c3ccc(F)cc3)=C2C)CC1
674 | CN(C)CCNC(=O)c1cc2cc(S(=O)(=O)N(C)C)ccc2n1Cc1ccccc1
643 | COC(=O)c1ncn2c1C(=O)N(C1CC1)C(C)(C(=O)NCc1ccc(C)cc1)C2 (centres undefined)
672 | Cc1ccc(-c2cn3cccc(C)c3n2)cc1NS(=O)(=O)c1ccccc1
811 | COc1cccc(CNC(=O)C2=C3CCCN3c3ccccc3S2(=O)=O)c1
950 | Cc1ccc(Nc2nc(C)cc(N3CCN(S(=O)(=O)c4cc(C(C)C)ccc4C)CC3)n2)cc1
1120 | COC(=O)c1ccc(NC(=O)C2CCCN(c3nc4ccccc4nc3OC)C2)cc1 (centres undefined)
685 | CCN1C(=O)c2cccnc2Sc2cc(NC(=O)C3CC3)ccc21
917 | CCCNC(=O)N(Cc1c(C)nn(-c2ccccc2)c1Oc1ccccc1OC)CC1CCCO1 (centres undefined)
960 | Cc1ccccc1Oc1nccnc1N1CCCC(C(=O)NCc2ccc(Br)cc2)C1 (centres undefined)
860 | COc1ccc(C(=O)Nc2ccc3c(c2)Sc2ncccc2C(=O)N3C(C)C)cc1
682 | Cc1ccc(N2CCN(C(=O)c3cn4cccc(C)c4n3)CC2)cc1
882 | CCc1ccccc1NC(=O)Cn1c(=O)n(-c2cccc(C)c2)c(=O)c2c1cc(C)n2C
679 | CCn1cc(-c2ccncc2)cc1C(=O)NCc1ccc(Cl)cc1
617 | Cc1cc(C(=O)Nc2nnc(-c3ccn(C)n3)o2)c(C)o1
916 | Cc1ccc(C)c(S(=O)(=O)NCc2c(-c3ccccc3)nc3sc(C)nn23)c1
1100 | COC(=O)c1cccc(C(=O)Nc2ccc(C)cc2Cl)n1
704 | CCOC(=O)c1cccc(Nc2c(C(=O)N3CCCCC3CC)cnc3nc(C)ccc23)c1 (centres undefined)
668 | Cc1ncn(CC(=O)Nc2ccccc2Cl)c(=O)c1C
866 | O=C(Cn1nc(N2CCOCC2)c2ccccc2c1=O)Nc1ccc(Cl)cc1F
731 | O=C(NCc1cccs1)NCC1CN(c2cccc(Cl)c2)C(=O)O1 (centres undefined)
1150 | Cc1ccc(NC(=O)Nc2nccn(-c3ccc(C)c(C)c3)c2=O)cc1C
1110 | CCOc1ccccc1NC(=O)Cn1cnc2c(sc3nc(-c4ccccc4)ccc32)c1=O

RP-LC retention time [s] | SMILES
1130 | Cc1ccc(-c2noc(CN3N=NC4C(=O)N(c5ccc(Br)cc5)C(=O)C43)n2)cc1C (centres undefined)
587 | CCOC(=O)c1cnc2nc(C)ccc2c1Nc1ccc(OC)c(OC)c1
600 | COc1ccc(CNC(=S)Nc2ccc3nc(N4CCN(C)CC4)cc(C)c3c2)c(OC)c1
604 | COc1cc(=O)c(C(=O)N2CCC(C(N)=O)CC2)nn1-c1ccc(C)cc1
789 | Cc1ccc(-n2nc(C)c(S(=O)(=O)N3CCC(C(=O)NC4CC4)CC3)c2C)cc1
665 | COc1ccccc1NC(=O)C1=C(C)NC(=O)NC1c1cccs1 (centres undefined)
976 | CCc1ccc(NC(=O)N2CCCC2c2nc(-c3ccccc3OC)no2)cc1 (centres undefined)
850 | Cc1cc(-c2nnc(C3CC3)o2)c(C)n1CC(=O)NCc1ccc(Cl)cc1
879 | NS(=O)(=O)c1cccnc1Nc1ccc(F)c(Cl)c1
964 | CCSc1nc2ccc(NS(=O)(=O)c3ccccc3F)cc2s1
854 | CN1C(=O)C(C)(C(=O)Nc2ccccc2Cl)Oc2cccnc21 (centres undefined)
771 | COCCN1C(=O)CCc2cc(NS(=O)(=O)c3ccc(Cl)cc3)ccc21
652 | COc1ccc(-c2noc(CNC(=O)c3cc(C)nc4ccccc34)n2)cc1OC
604 | CC(=O)Nc1ccc(S(=O)(=O)Nc2ccc3c(c2)CCC(=O)N3C)cc1
674 | COc1ccc(NC(=O)Cn2nc3c4ccccc4ncn3c2=O)cc1Cl
774 | CCC(C(=O)NCc1ccccc1)n1cnc2nc3c(cc2c1=O)CCCC3 (centres undefined)
746 | CCCCNC(=O)C1CCCN(c2nnc(C)c3c(C)n(-c4ccc(Cl)cc4)nc23)C1 (centres undefined)
1020 | O=C(c1ccc(F)c(F)c1)N1CCc2nc(-c3ccc(Cl)cc3)ncc2C1
998 | COc1ccc(-c2noc(C3CC(=O)N(c4cccc(Cl)c4)C3)n2)cc1 (centres undefined)
814 | CCC1Oc2ccc(S(=O)(=O)N3CCC(C(=O)Nc4cccc(C)c4)CC3)cc2NC1=O (centres undefined)
693 | Cc1oc(-c2[nH]ncc2C(=O)N(C)C)cc1S(=O)(=O)NCc1ccccc1Cl
948 | Cc1cc(F)ccc1NC(=O)Cn1cc2c(n1)CCC(C)C2 (centres undefined)
959 | COc1cccc(-c2nc(-c3ccc4c(c3)oc(=O)n4C)no2)c1OC
587 | Cc1cc(C(=O)N2CCCn3ccnc3C2c2cnn(C)c2)c(C)o1 (centres undefined)
